Laboratory results: patent US9573983B2, “Compositions including I-domain antigen conjugate compounds and methods for treatment of autoimmune disorders” (University of Kansas, priority 2012, dated 2017)

How the values were obtained:
EAE mouse model [1] = assay: Suppression of EAE, prophylactic and vaccine-like treatment (Example 2); assay type: in vivo, SJL/J female mice
Protocol: Six-to-eight week old SJL/J female mice were immunized subcutaneously with 200 μg PLP139-151 peptide in a 0.2 ml emulsion consisting of equal volumes of PBS and complete Freund's adjuvant (CFA) containing killed mycobacterium tuberculosis strain H37RA at a final concentration of 4 mg/ml (Difco, Detroit, Mich.). The PLP/CFA emulsion was administered to regions above the shoulder and the flanks (total of 4 sites, 50 μl at each injection site). In addition, 200 ng of pertussis toxin was injected intraperitoneally on the day of immunization (day 0) and 2 days post-immunization.
The mice then received either intravenous or subcutaneous injections of IDAC (10 or 26 nmol/injection) or peptides (100 nmol/injection for Ac-PLP-BPI-NH2-2 or 50 nmol/injection/mouse for Ac-PLP-cIBR1-NH2). The prophylactic disease suppression was carried out with subcutaneous or intravenous injections of IDAC molecules on days 4 and 7, or BPI molecules on days 4, 7, and 10. Mice receiving vaccine-like treatment were given subcutaneous injections of IDAC and BPI molecules at 11, 8, and 5 days prior to the induction of disease. As negative controls, mice were treated with PBS, 1-domain, and GMB-I-domain. Disease progression was evaluated by monitoring the change in weight of the mice and clinical scoring based on the severity of nerve damage ranging from 0 to 5: 0—no clinical symptoms of disease; 1—tail weakness or limp tail; 2—paraparesis (weakness or partial paralysis of one or two hind limbs); 3—paraplegia (complete paralysis of two hind limbs); 4—paraplegia with forelimb weakness or paralysis; 5—moribund (at this point, the affected mice were euthanized).
Statistical differences among the groups in clinical disease scores were determined by calculating the average score for each mouse from day 12 to day 17 by one-way analysis of variance followed by Fisher's least significant difference. Statistical differences in body weight among groups were also analyzed in the same fashion, but from day 12 to day 24. Comparison of cytokine concentrations was also performed by one-way analysis of variance. All analyses were performed using StatView (SAS Institute, Cary, N.C.).

EAE mouse model [2] = conditions: earlier study (ref. 7); cited from earlier work
mouse EAE model = assay: Suppression of EAE in PLP139-151/CFA-immunized mice (Example 1); assay type: in vivo, female inbred SJL/J mice; conditions: i.v., IDAC 26 nmol/injection days 4, 7, Ac-PLP-BPI-NH2-2 100 nmol/injection days 4, 7, 10, vs PBS
Protocol: Female inbred SJL/J mice, 5-7 weeks old, were randomly divided into different groups. All mice were immunized with PLP139-151 in Freund's complete adjuvant (CFA) to induce EAE, as reported previously (3, 4). The PLP/CFA emulsion (50 μL per site) was administered to four separate regions above the shoulder and on the flanks. In addition, 200 ng of pertussis toxin (List Biological Laboratories Inc., Campbell, Calif.) was injected intraperitoneally on day 0 and 2.
After disease stimulation, one group of mice received intravenous (i.v.) injections of 26 nmol/injection/day of the conjugate IDAC on days 4 and 7. The second and third groups of mice received i.v. injections of 100 nmol/injection/day of Ac-PLP-BPI-NH2-2 and 100 microliter of PBS, respectively, on days 4, 7, and 10. The animals were weighed and observed daily. Disease progression was evaluated observed using a blinded method as reported previously (3, 4). The clinical scores were rated using the following scale: 0—no clinical signs of disease; 1—tail weakness or limp tail; 2—paraparesis (weakness or incomplete paralysis of one or two hind limbs); 3—paraplegia (complete paralysis of two hind limbs); 4—paraplegia with forelimb weakness or paralysis; and 5—moribund or dead.
Statistical differences among the groups in clinical disease scores were determined by calculating the average score for each mouse from the day of disease onset to day 20 by One-way Analysis of Variance followed by Fisher's least significant difference using StatView (SAS Institute, Cary, N.C.). Statistical differences among the groups in body weight were also analyzed in the same way. The presence of significant difference is denoted with p-values of <0.05 or <0.001.

[3] = Solubility of peptide during conjugation; assay type: physicochemical; conditions: conjugation reaction mixture; peptide dissolved in DMSO before addition

solubility [3] | Substance | clinical scores (suppression of EAE) (EAE mouse model [1]; vaccine-like s.c. days -11, -8, -5, IDAC-3 10 nmol/injection, Ac-PLP-BPI-NH2-2 100 nmol/injection, vs PBS, p<0.005, days 12-17) | change in body weight (EAE mouse model [1]; vaccine-like s.c. days -11, -8, -5, IDAC-3 10 nmol/injection, Ac-PLP-BPI-NH2-2 100 nmol/injection, vs PBS, p<0.005, days 12-24) | onset of disease (incidence of disease) (EAE mouse model [1]; vaccine-like s.c., IDAC-3 26 nmol/injection days -11, -8, Ac-PLP-BPI-NH2-2 100 nmol/injection days -11, -8, -5) | relapse of disease (long-term effect) (EAE mouse model [1]; vaccine-like s.c., IDAC-3 26 nmol/injection days -11, -8, Ac-PLP-BPI-NH2-2 100 nmol/injection days -11, -8, -5, days 45-55) | suppression of EAE, capped vs uncapped peptide (EAE mouse model [2]) | clinical disease scores (suppression of EAE) (mouse EAE model; p<0.0001, days 12-17) | incidence of disease (mouse EAE model; p<0.0001, days 12-24)
– | Ac-HSLGKWLGHPDKF-(AcpGAcpGAcp)2-ITDGEATDSG-NH2 [Ac-PLP-BPI-NH2-2, reference compound] | significantly suppressed EAE compared to PBS | significantly suppressed EAE compared to PBS | Delay in the onset of disease | along-term effect to prevent relapse | could suppress EAE better than its uncapped counterpart (PLP-BPI) | complete suppression of the disease | completely eliminated
low solubility | Ac-GWYRSPFSRVVHLC-NH2 [MOG-Cys, Ac-GWYRSPFSRVVHLC-NH2] | – | – | – | – | – | – | –
